Drawing on patent US11629139B2 (priority 2017, dated 2023), this text covers IC50 for 39 molecules.

The test system of the assay is vesicular stomatitis virus particles (VSV) pseudotyped with EboV Zaire GP. Nature of the assay: microbe, parasite or virus in culture. Type of assay: cell-based.

Where two headings read alike, the source gives them in different places.

The term IC50 denotes the concentration that gives 50% inhibition. Where the note is “Vesicular stomatitis virus”, `Nc1c(Cl)cc(Cl)cc1CN1CCN(C(=O)CNC(=O)CC23CC4CC(CC(C4)C2)C3)CC1` [Compound 1349, 2-((1R,3R,5S)-Adamantan-1-yl)-N-(2-(4-(2-amino-3,5-dichlorobenzyl)piperazin-1-yl)-2-oxoethyl)acetamide] came in with an IC50 of 500 nM.

As to `O=C(CC12CC3CC(CC(C3)C1)C2)NCC(=O)N1CCN(Cc2cc(Cl)ccc2O)CC1` [Compound 1249, 2-((1R,3R,5S)-Adamantan-1-yl)-N-(2-(4-(5-chloro-2-hydroxybenzyl)piperazin-1-yl)-2-oxoethyl)acetamide], half-maximal inhibition (Vesicular stomatitis virus) (IC50) required 200 nM.

Where the note is “Vesicular stomatitis virus”, `O=C(CNC(=O)C12CC3(F)CC(F)(CC(F)(C3)C1)C2)N1CCN(Cc2ccccc2OCc2ccc(Br)cc2)CC1` [Compound 1255] returned a half-maximal inhibitory concentration (IC50) of 400 nM.

Consider `[2H]C([2H])(c1cc(Cl)ccc1NCc1cocn1)N1CCN(C(=O)CNC(=O)[C@@H]2CC23CCC(F)(F)CC3)CC1` [Compound 1583], for which 150 nM corresponded to half-maximal inhibition (Vesicular stomatitis virus) (IC50).

For the molecule `[2H]C([2H])(c1cc(Cl)ccc1NCc1ncccn1)N1CCN(C(=O)CNC(=O)[C@@H]2CC23CCC(F)(F)CC3)CC1` [Compound 1580], half-maximal inhibition (Vesicular stomatitis virus) (IC50) required 700 nM.

As to `O=C(CC12CC3CC(CC(C3)C1)C2)NCC(=O)N1CCN(Cc2cc(F)c(F)cc2O)CC1` [Compound 1324, 2-((1R,3R,5S)-Adamantan-1-yl)-N-(2-(4-(4,5-difluoro-2-hydroxybenzyl)piperazin-1-yl)-2-oxoethyl)acetamide], where the note is “Vesicular stomatitis virus”, the IC50 is 1500 nM.

Consider `O=C(CC1CCC(F)(F)CC1)NCC(=O)N1CCN(Cc2cccc3ncccc23)CC1` [Compound 1428, 2-(4,4-Difluorocyclohexyl)-N-(2-oxo-2-(4-(quinolin-5-ylmethyl)piperazin-1-yl)ethyl)acetamide], for which, under “Vesicular stomatitis virus”, the IC50 is more than 5000 nM.

Turning to `N#Cc1ccc(Br)cc1CN1CCN(C(=O)CNC(=O)CC2CCC(F)(F)CC2)CC1` [Compound 1371, N-(2-(4-(5-Bromo-2-cyanobenzyl)piperazin-1-yl)-2-oxoethyl)-2-(4,4-difluorocyclohexyl)acetamide], the IC50 (Vesicular stomatitis virus) was more than 2000 nM.

On to `CC(=O)Nc1ccc(Cl)cc1CN1CCN(C(=O)CNC(=O)CC23CC4CC(CC(C4)C2)C3)CC1` [Compound 1342, N-(2-(4-(2-Acetamido-5-chlorobenzyl)piperazin-1-yl)-2-oxoethyl)-2-((3s)-adamantan-1-yl)acetamide], for which the IC50 (read-out: IC50) came out at 1100 nM.

`COC(=O)c1ccc(/C=C/c2ccccc2CN2CCN(C(=O)CNC(=O)CC34CC5CC(CC(C5)C3)C4)CC2)cc1` [Compound 1253] gave an IC50 (Vesicular stomatitis virus) of 1500 nM.

In the case of `Nc1cc(OCc2ccc(Br)cc2)c(CN2CCN(C(=O)CNC(=O)CC34CC5CC(CC(C5)C3)C4)CC2)cc1Cl` [Compound 1252], under “Vesicular stomatitis virus”, the IC50 stood at 800 nM.

`COC(=O)c1ccc(CCc2ccccc2CN2CCN(C(=O)CNC(=O)CC34CC5CC(CC(C5)C3)C4)CC2)cc1` [Compound 1123]: where the note is “Vesicular stomatitis virus”, the IC50 came to 20 nM.

In turn, `COC(=O)CCCOc1ccc(Cl)cc1CN1CCN(C(=O)CNC(=O)CC23CC4CC(CC(C4)C2)C3)CC1` [Compound 1303, Methyl 4-(2-((4-((2-((1R,3R,5S)-Adamantan-1-yl)acetyl)glycyl)piperazin-1-yl)methyl)-4-chlorophenoxy)butanoate] returned an IC50 (Vesicular stomatitis virus) of approximately 2000 nM.

Under “Vesicular stomatitis virus”, `COc1ccc(Cl)cc1CN1CCN(C(=O)CNC(=O)CC2CCC(F)(F)CC2)CC1` [Compound 1384, N-(2-(4-(5-Chloro-2-methoxybenzyl)piperazin-1-yl)-2-oxoethyl)-2-(4,4-difluorocyclohexyl)acetamide] returned an IC50 of 330 nM.

Regarding `Nc1ccc(Br)cc1CN1CCN(C(=O)CNC(=O)CC2CCC(F)(F)CC2)CC1` [Compound 1355, N-(2-(4-(2-Amino-5-bromobenzyl)piperazin-1-yl)-2-oxoethyl)-2-(4,4-difluorocyclohexyl)acetamide], it took 1740 nM to reach half-maximal inhibition (Vesicular stomatitis virus) (IC50).

The molecule `O=C(CC1CCC(F)(F)CC1)NCC(=O)N1CCN(Cc2cc(Cl)cc(Oc3ccncc3)c2)CC1` [Compound 1432, N-(2-(4-(3-Chloro-5-(pyridin-4-yloxy)benzyl)piperazin-1-yl)-2-oxoethyl)-2-(4,4-difluorocyclohexyl)acetamide] came in with an IC50 (Vesicular stomatitis virus) of 185 nM.

On to `COC(=O)c1cccc(-c2ccc(O)c(CN3CCN(C(=O)CNC(=O)CC45CC6CC(CC(C6)C4)C5)CC3)c2)c1` [Compound 1310, Methyl 3′-((4-((2-((1R,3R,5S)-adamantan-1-yl)acetyl)glycyl)piperazin-1-yl)methyl)-4′-hydroxy-[1,1′-biphenyl]-3-carboxylate], for which half-maximal inhibition (Vesicular stomatitis virus) (IC50) was put at 310 nM.

`[2H]C([2H])(c1cc(Cl)ccc1NCc1ccc(S(C)(=O)=O)cc1F)N1CCN(C(=O)CNC(=O)[C@@H]2CC23CCC(F)(F)CC3)CC1` [Compound 1562] showed an IC50 (Vesicular stomatitis virus) of 13 nM.

In the case of `CC(C)c1nc(CN(C)C(=O)N[C@H](C(=O)N[C@@H](Cc2ccccc2)C[C@H](O)[C@H](Cc2ccccc2)NC(=O)OCc2cncs2)C(C)C)cs1` [Ritonavir, reference compound], the IC50 (Vesicular stomatitis virus, read-out: IC50, VSV EBOV infection) is more than 25000 nM.

Consider `COC(=O)c1ccc(COc2ccc(F)cc2CN2CCN(C(=O)CNC(=O)CC34CC5CC(CC(C5)C3)C4)CC2)cc1` [Compound 1112], for which the IC50 (Vesicular stomatitis virus) is less than 2000 nM.

Molecule `O=C(CC1CCC(F)(F)CC1)NCC(=O)N1CCN(Cc2cc(Cl)c(F)cc2F)CC1` [Compound 1368, N-(2-(4-(5-chloro-2,4-difluorobenzyl)piperazin-1-yl)-2-oxoethyl)-2-(4,4-difluorocyclohexyl)acetamide] had an IC50 (Vesicular stomatitis virus) of more than 2000 nM.

Consider `CN(C)c1ccc(CN2CCN(C(=O)CNC(=O)CC34CC5CC(CC(C5)C3)C4)CC2)cc1Cl` [Compound 1251], for which the IC50 (Vesicular stomatitis virus) was 1700 nM.

For the setting “Vesicular stomatitis virus”, `CNS(=O)(=O)c1ccc(COc2ccccc2CN2CCN(C(=O)CNC(=O)CC34CC5CC(CC(C5)C3)C4)CC2)cc1` [Compound 1257] showed an IC50 of 300 nM.

`COC(=O)c1ccc(COc2ccccc2CN2CCN(C(=O)CNC(=O)Cc3ccc(F)cc3)CC2)cc1` [Compound 1312, Methyl 4-((2-((4-((2-(4-fluorophenyl)acetyl)glycyl)piperazin-1-yl)methyl)phenoxy)methyl)benzoate] displayed an IC50 (Vesicular stomatitis virus) of 600 nM.

Consider `COC(=O)c1ccc(COc2ccc(Cl)cc2CN2CCN(C(=O)CNC(=O)CC34CC5CC(CC(C5)C3)C4)CC2)cc1` [Compound 1118], for which 1 nM corresponded to half-maximal inhibition (Vesicular stomatitis virus) (IC50).

For the setting “Vesicular stomatitis virus”, `COC(=O)c1ccc(COc2ccccc2CN2CCN(C(=O)CNC(=O)C3CC34CCCCC4)CC2)cc1` (stereo not drawn) [Compound 1316, Methyl 4-((2-((4-((spiro[2.5]octane-1-carbonyl)glycyl)piperazin-1-yl)methyl)phenoxy)methyl)benzoate] gave an IC50 of 70 nM.

The molecule `O=C(CC12CC3CC(CC(O)(C3)C1)C2)NCC(=O)N1CCN(Cc2ccccc2OCc2ccc(Br)cc2)CC1` [Compound 1244] displayed an IC50 (Vesicular stomatitis virus) of 500 nM.

`N#Cc1ccc(COc2ccccc2CN2CCN(C(=O)CNC(=O)CC34CC5CC(CC(C5)C3)C4)CC2)cc1` [Compound 1259] displayed an IC50 (Vesicular stomatitis virus) of 700 nM.

For the molecule `O=C(CNC(=O)C12CC3CC(C1)CC(c1ccc(O)c([N+](=O)[O-])c1)(C3)C2)N1CCN(Cc2ccccc2OCc2ccc(Br)cc2)CC1` [Compound 1805, (1s,3r,5R,7S)—N-(2-(4-(2-((4-bromobenzyl)oxy)benzyl)piperazin-1-yl)-2-oxoethyl)-3-(4-hydroxy-3-nitrophenyl)adamantane-1-carboxamide], inhibition (Vesicular stomatitis virus) was half-maximal at 600 nM (IC50).

With `Nc1cc(Cl)cc(CN2CCN(C(=O)CNC(=O)CC3CCC(F)(F)CC3)CC2)c1` [Compound 1385, N-(2-(4-(3-Amino-5-chlorobenzyl)piperazin-1-yl)-2-oxoethyl)-2-(4,4-difluorocyclohexyl)acetamide], for the setting “Vesicular stomatitis virus”, the IC50 came to 2200 nM.

`CC(=O)N1CCC(COc2ccc(Cl)cc2CN2CCN(C(=O)CNC(=O)CC34CC5CC(CC(C5)C3)C4)CC2)CC1` [Compound 1301, N-(2-(4-(2-((1-acetylpiperidin-4-yl)methoxy)-5-chlorobenzyl)piperazin-1-yl)-2-oxoethyl)-2-((3r,5r,7r)-adamantan-1-yl)acetamide] yielded an IC50 (Vesicular stomatitis virus) of 400 nM.

`O=C(CC12CC3CC(CC(C3)C1)C2)NCC(=O)N1CCN(Cc2cc(F)cc(F)c2O)CC1` [Compound 1325, 2-((1R,3R,5S)-Adamantan-1-yl)-N-(2-(4-(3,5-difluoro-2-hydroxybenzyl)piperazin-1-yl)-2-oxoethyl)acetamide] gave an IC50 (Vesicular stomatitis virus) of 1000 nM.

In the case of `C#Cc1ccc(F)c(CN2CCN(C(=O)CNC(=O)CC34CC5CC(CC(C5)C3)C4)CC2)c1` [Compound 1352, 2-((1R,3R,5S)-Adamantan-1-yl)-N-(2-(4-(5-ethynyl-2-fluorobenzyl)piperazin-1-yl)-2-oxoethyl)acetamide], under “Vesicular stomatitis virus”, the IC50 came to 1700 nM.

For the setting “Vesicular stomatitis virus”, `Nc1ccc(CN2CCN(C(=O)CNC(=O)C3CC34CCC(F)(F)CC4)CC2)cc1Cl` (stereo not drawn) [Compound 1390, N-(2-(4-(4-Amino-3-chlorobenzyl)piperazin-1-yl)-2-oxoethyl)-6,6-difluorospiro[2.5]octane-1-carboxamide] gave an IC50 of 1100 nM.

Consider `COC(=O)c1ccc(Oc2cc(Cl)cc(CN3CCN(C(=O)CNC(=O)CC45CC6CC(CC(C6)C4)C5)CC3)c2)cc1` [Compound 1323, Methyl 4-(3-((4-((2-((1R,3R,5S)-adamantan-1-yl)acetyl)glycyl)piperazin-1-yl)methyl)-5-chlorophenoxy)benzoate], for which the IC50 (read-out: IC50) is 15 nM.

Turning to `COC(=O)c1ccc(COc2ccc(Br)cc2CN2CCN(C(=O)CNC(=O)CC34CC5CC(CC(C5)C3)C4)CC2)cc1` [Compound 1111], for the setting “Vesicular stomatitis virus”, half-maximal inhibition (IC50) required 13 nM.

In turn, `Nc1c(Cl)cc(Cl)cc1CN1CCN(C(=O)CNC(=O)CC2CCC(F)(F)CC2)CC1` [Compound 1381, N-(2-(4-(2-Amino-3,5-dichlorobenzyl)piperazin-1-yl)-2-oxoethyl)-2-(4,4-difluorocyclohexyl)acetamide] gave an IC50 (Vesicular stomatitis virus) of more than 2000 nM.

On to `[2H]C([2H])(c1cc(Cl)ccc1NCc1cnco1)N1CCN(C(=O)CNC(=O)[C@@H]2CC23CCC(F)(F)CC3)CC1` [Compound 1587], for which the IC50 (Vesicular stomatitis virus) was determined as 130 nM.

Regarding `O=C(NCC(=O)N1CCN(Cc2cccc3cccnc23)CC1)C1CC12CCC(F)(F)CC2` (stereo not drawn) [Compound 1420, 6,6-Difluoro-N-(2-oxo-2-(4-(quinolin-8-ylmethyl)piperazin-1-yl)ethyl)spiro[2.5]octane-1-carboxamide], the IC50 (Vesicular stomatitis virus) came out at 490 nM.
